Key:
Format in all cases: cell-based
Pseudomonas aeruginosa = test: In vitro inhibition in nutrient broth, Pseudomonas aeruginosa; conditions: no growth by 48 hours; inoculum 0.2 ml of 1/10,000 dilution of overnight culture
Experimental: (§1) In these tests bacterial growth was measured or observed by turbidity in the test tubes containing the inoculated nutrient broth after 18-20 hours incubation at 37° C.
(§2) *Concentration -- μM/ml which permitted no growth by 48 hours.
(§3) Inoculum = 0.2 ml of 1/10,000 dilution of overnight culture.

Esch. coli = test: In vitro inhibition in nutrient broth, Esch. coli; conditions: no growth by 48 hours; inoculum 0.2 ml of 1/10,000 dilution of overnight culture
Experimental: as §1, §2, §3

Staph. aureus = test: In vitro inhibition in nutrient broth, Staph. aureus; conditions: no growth by 48 hours; inoculum 0.2 ml of 1/10,000 dilution of overnight culture
Experimental: as §1, §2, §3

Klebsiella pneumoniae = test: In vitro inhibition in nutrient broth, Klebsiella pneumoniae; conditions: no growth by 48 hours; inoculum 0.2 ml of 1/10,000 dilution of overnight culture
Experimental: as §1, §2, §3

bacterial growth = test: Inhibition of bacterial growth in nutrient broth (turbidity), organism not specified; conditions: 18-20 hours incubation at 37° C.
Experimental: as §1

## O=[N+]([O-])[O-].O=[N+]([O-])[O-].O=[N+]([O-])[O-].[Ce+3] [Cerous nitrate, cerous nitrate]
Pseudomonas aeruginosa
  Inhibitory concentration, Pseudomonas aeruginosa: 2.5 μM per ml
Esch. coli
  Inhibitory concentration, Esch. coli: 2.5 μM per ml
Staph. aureus
  Inhibitory concentration, Staph. aureus: 5.0 μM per ml
Klebsiella pneumoniae
  Inhibitory concentration, Klebsiella pneumoniae: 5.0 μM per ml
Bacterial growth
  concentration inhibiting bacterial growth: at least 1.0 μM per ml

## O=[N+]([O-])[O-].[Ag+] [Silver nitrate, silver nitrate]
Pseudomonas aeruginosa
  Inhibitory concentration, Pseudomonas aeruginosa: 0.025 μM per ml
Esch. coli
  Inhibitory concentration, Esch. coli: 0.005 μM per ml
Staph. aureus
  Inhibitory concentration, Staph. aureus: 0.005 μM per ml
Klebsiella pneumoniae
  Inhibitory concentration, Klebsiella pneumoniae: 0.1 μM per ml
